Measured values from patent publication US5716934A, “Eck receptor ligands” (Amgen Inc., priority 1995, dated 1998).

Legend:
[1] = system: eck receptor on CHO 19.32 cells; experiment: Chemical crosslinking of 125I-EBP to CHO 19.32 cells; format: binding, human
Method: (§1) CHO-cell derived EBP was radiolabelled with ^125 I as described below for use in crosslinking and binding studies. Five or 10 μg of EBP in 0.1M sodium phosphate (NAPO4, pH 8.0) was added to 5 mCi of dried ^125 I-Bolton-Hunter reagent (NEN, Boston, Mass.) in a final volume of 50 μl or 100 μl, and the tube was incubated at 4° C. for 1 h. The reaction was terminated by addition of 0.3 ml of 0.2M glycine in 0.1M NaPO4, followed by incubation at 4° C. for 5 min. Labeled protein was separated from unincorporated reagent by gel filtration chromatography on a 10 ml PD10 column containing Sephadex G-25M (Pharmacia) equilibrated with 0.1M NaPO4 --0.25% gelatin. Specific activity of the ^125 I-EBP ranged from 4 to 19 cpm/pg.
(§2) Crosslinking of EBP to either LIM 2405 (a cell line naturally expressing the eck receptor) or CHO 19.32 (Chinese hamster ovary cells transfected with a clone of the full length eck receptor) was carried out as follows. CHO cells were grown in suspension to a density of approximately 5×10^5 cells/ml in media. LIM2405 cells were grown in RPMI 1640 media containing 5% FCS, 1 μg/ml insulin, 1 μg/ml hydrocortisone, 10 μM thioglycerol and 2 mM L-glutamine to approximately 90% confluency in T-175 flasks and removed by scraping for use in the crosslinking studies. Cells were spun down and resuspended in PBS to give a single cell suspension. For each crosslinking reaction, 2×10^6 cells were mixed with approximately 20 ng of ^125 I-EBP in a total volume of 1 ml. This mixture was incubated at 4° C. for 1 h to allow binding of EBP to cell surface receptors before the addition of 20 μl of 10 mM disuccinimidyl suberate (DSS) as a crosslinking agent. Cells were then washed three times in binding buffer, collected by centrifugation, and the amount of radioactivity incorporated into the cell pellets was counted to assess the degree of crosslinking. The cells were then lysed by treatment with 100 ul PBS, 1 mM EDTA, 0.5% NP-40, 1 mM phenylmethylsulfonyl fluoride (PMSF, Sigma, St. Louis, Mo.) for 10 min at 4° C. […]

eck receptor = experiment: as above; format: binding, human; conditions: untransfected cells (CHOd-)
Method: as §1, §2

eck receptor (p130^eck) = experiment: p130eck autophosphorylation in LIM 2405 cells; format: cell-based, human; conditions: for eck receptor phosphorylation: intact LIM 2405 cells, 10-15 min at 37° C.
Method: The LIM 2405 colorectal carcinoma cell line (Whitehead et al. Immunol. and Cell Biol. 70, 227 (1992)) was maintained in RPMI 1640 containing 5% FBS, 1 μg/ml insulin, 10 μg/ml hydrocortisone and 10 μM α-thioglycerol, and subpassaged by trypsination and dilution (1:5) into fresh media. Prior to assay 2.5×10^5 LIM 2405 cells were seeded into 6-well dishes (Falcon #3046) and incubated for 24 hr at 37° C. The media was discarded and replaced with serum-free RPMI 1640 containing 0.03% BSA, 1 μg/ml insulin, 10 μg/ml hydrocortisone and 10 μM α-thioglycerol, then incubated for 12-18 hr. In some experiments the cell cultures were labelled with ^32 P-orthophosphate (2 mCi/ml) in phosphate-free RPMI 1640 (Flow) for 2-3 hr prior to treatment. Growth factor stock solutions were prediluted at varying concentrations into 2.0 ml of serum-free media, then warmed to 37° C. Cell cultures were removed from the incubator, and the supernatant media discarded. Treatments were promptly added and the cell cultures incubated at 37° C. for 10-15 min. The cultures were then removed from the incubator, placed on ice, and the culture supernatant aspirated.
The treated cell cultures were chilled to 0° C. then washed once with ice-cold PBS (GIBCO). The residual PBS was aspirated and the cells were lysed by the addition of 1.0 ml of ice-cold RIPA buffer (10 mM sodium phosphate, pH 7.4, 150 mM sodium chloride, 0.1% sodium dodecyl sulfate, 1% NP-40, 1% deoxycholate, 1% Trasylol, 2 mM EDTA, 50 mM sodium fluoride and 100 mM sodium orthovanadate). After a 10 min incubation the lysates were transferred to 1.5 ml tubes and clarified by centrifugation for 30 min at 10,000×g. The clarified lysate supernatants were transferred to new tubes and immunoprecipitated with 1.0 μg/ml of affinity purified rabbit anti-Eck C-terminal domain antibody for 2 hr at 0° C. Immune complexes were adsorbed to Protein-G Sepharose beads (Pharmacia) at 4° C. for 30 min, washed twice with ice-cold RIPA buffer, once with 0.1M Tris-HCl, pH 8.0, containing 0.5M LiCl, and once with RIPA. The resulting immunoprecipitates were solubilized with SDS-PAGE sample buffer and stored for further analysis.
The anti-eck immunoprecipitates from treated and untreated LIM 2405 cell lysates were resolved on 7.5% polyacrylamide gels as previously described (Boyle et al. Meth. Enzymol. 201, 110 (1991)). […] Immune complexes were detected by chemiluminescent exposure (ECL, Amersham) to Kodak X-OMAT X-ray film at room temperature for 0.5-5 min.
Eck receptor immunoprecipitates from ^32 P-labelled LIM 2405 cells were resolved by SDS-PAGE, and the gel dried directly without fixation. After exposure to X-ray film the labelled eck receptor band was isolated and phosphoamino acid content determined as described (Boyle et al. Meth. Enzymol. 201, 110 (1991))

Substance: CHO-EBP: recombinant EBP purified from supernatants of CHO cells transfected with the EBP gene; mainly EBP^1-150 and EBP^1-159
- competition for binding and crosslinking of 125I-rEBP ([1]; 50-fold molar excess): able to compete
- crosslinking to CHO 19.32 cells ([1]; CHO cells transfected with eck, DSS crosslinker): could be crosslinked
- crosslinking to untransfected CHO cells (eck receptor): but not to the untransfected cells
- total cellular eck protein levels (eck receptor (p130^eck); LIM 2405 cells after exposure to soluble EBP): modest dose-dependent decrease
- eck receptor phosphorylation (eck receptor (p130^eck); listed as CHO cell-derived rEBP): stimulated eck receptor phosphorylation
- eck receptor phosphorylation (eck receptor (p130^eck); listed as CHO-derived rEBP): active in inducing phosphorylation
